Data on 12 compounds can be found in PMC6270666, “Flavonoids with M1 Muscarinic Acetylcholine Receptor Binding Activity” (Molecules, 2014).

Molecules are shown by their SMILES. Like-named read-outs stand apart in the source and are kept apart here.

The target of one data set is T1, cloned human M1 mAChRs (Homo sapiens, UniProt P11229).
T1 construct: purchased Perkin Elmer; host or cells: stably transfected CHO-K1 cell lines (membrane preparation)
T1 sequence (P11229 1-460): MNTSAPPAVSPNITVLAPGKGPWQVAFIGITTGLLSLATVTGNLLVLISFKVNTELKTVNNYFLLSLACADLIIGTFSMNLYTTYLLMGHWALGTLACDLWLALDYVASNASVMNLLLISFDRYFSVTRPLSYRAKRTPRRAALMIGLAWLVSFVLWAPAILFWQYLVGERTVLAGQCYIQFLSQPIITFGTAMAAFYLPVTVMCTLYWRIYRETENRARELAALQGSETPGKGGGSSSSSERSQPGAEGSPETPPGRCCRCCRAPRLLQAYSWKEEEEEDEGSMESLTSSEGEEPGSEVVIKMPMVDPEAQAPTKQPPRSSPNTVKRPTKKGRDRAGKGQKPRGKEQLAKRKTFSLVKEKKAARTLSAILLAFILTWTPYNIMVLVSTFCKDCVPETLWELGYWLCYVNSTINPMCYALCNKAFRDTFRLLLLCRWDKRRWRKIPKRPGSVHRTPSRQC
The data set is described as follows: M1 mAChR radioligand binding assay ([3H]N-methylscopolamine displacement).

The next data set deals with cholinesterase. Further details: method as in PMID 20030514. The settings on record: cited from earlier work.
The subject of data set [1] is amyloid β25-35 peptide-induced toxicity in mice. Particulars: cited from earlier work.
In data set [2] the test system is streptozotocin-induced diabetic rats. Also noted: method as in PMID 23415807. Particulars: cited from earlier work.
The test system of data set [3] is SH-SY5Y neuroblastoma cells. Particulars: cited from earlier work.
Another data set relates to CLK1. Further details: method as in PMID 22673832. The settings on record: cited from earlier work.
Another data set has as its system DYRK1A. Also noted: method as in PMID 22673832. The settings on record: cited from earlier work.
Where [4] appears, read: displacement of [3H]N-methylscopolamine 0.2 nM, M1 mAChR membranes from CHO-K1 cells, 27 °C, 120 min, mean ± SEM (n = 2), read-out: IC50.
The mark [5] stands for this setting: Cheng-Prusoff from IC50, [3H]N-methylscopolamine 0.2 nM, M1 mAChR membranes from CHO-K1 cells, mean ± SEM (n = 2), read-out: Ki.

On to `COc1cc(OC)c2c(=O)cc(-c3ccc(OC)c(OC)c3)oc2c1` [Compound 1, 3',4',5,7-Tetramethoxyflavone], for which the IC50 (as a rule, the concentration needed to halve the response being measured) on cloned human M1 mAChRs was more than 10000 µM. Turning to `COc1cc(OC)c2c(=O)cc(-c3cc(OC)c(OC)c(OC)c3)oc2c1` [Compound 2, 3',4',5',5,7-Pentamethoxyflavone], the melting point (commonly the temperature, or range, at which the solid turns liquid) was 195 °C. Also, the half-maximal inhibitory concentration (IC50) at cloned human M1 mAChRs (setting [4]) was more than 10000 µM. `COc1ccc(-c2cc(=O)c3c(OC)c(OC)c(OC)cc3o2)cc1OC` [Compound 3, 3',4',5,6,7-Pentamethoxyflavone]: the IC50 at cloned human M1 mAChRs (setting [4]) is more than 10000 µM. Regarding `COc1cc(-c2cc(=O)c3c(OC)c(OC)c(OC)cc3o2)cc(OC)c1OC` [Compound 4, 3',4',5',5,6,7-Hexamethoxyflavone], the Ki – broadly, the equilibrium dissociation constant of an inhibitor or competing ligand from its target – on cloned human M1 mAChRs (setting [5]) amounted to 107 ± 11 µM. Further, the concentration for half-maximal inhibition (IC50) on cloned human M1 mAChRs (setting [4]) came out at 257 ± 27 µM. With `O=c1cc(-c2ccc(O)cc2)oc2cc(O)cc(O)c12` [Compound 5, Apigenin], the IC50 at cloned human M1 mAChRs was more than 10000 µM. Turning to `O=c1cc(-c2ccc(O)c(O)c2)oc2cc(O)cc(O)c12` [Compound 6, Luteolin], the cholinesterase inhibitory activity result with cholinesterase was “cholinesterase inhibitory activity”. The “effect against amyloid β25-35 peptide-induced toxicity” value in data set [1] is “anti-amnesic effects”. Moreover, in data set [2], the “effect on cognitive decline” value was “attenuation of cognitive decline”. In addition, at cloned human M1 mAChRs, the IC50 came to 226 ± 14 µM and the affinity corresponds to a Ki of 94 ± 6 µM. In data set [3], the “effect on hydrogen peroxide-induced apoptosis” value was “protective effects”. For `O=c1c(O)c(-c2ccc(O)c(O)c2)oc2cc(O)ccc12` [Compound 8, Fisetin], the IC50 on cloned human M1 mAChRs (setting [4]) was more than 10000 µM. Consider `COc1cc(O)c2c(=O)c(O)c(-c3ccc(OC)c(O)c3)oc2c1` [Compound 9, 3ʹ,3,5-Trihydroxy-4ʹ,7-dimethoxyflavone], for which the “inhibition of CLK1 kinase” value in the data set with CLK1 was “potent inhibitor”. The Ki on cloned human M1 mAChRs (setting [5]) came to 42 ± 3 µM. The concentration for half-maximal inhibition (IC50) on cloned human M1 mAChRs (setting [4]) was found to be 101 ± 6 µM. Besides, the “inhibition of DYRK1A kinase” value in the data set with DYRK1A is “potent inhibitor”. `COc1ccc(-c2oc3cc(OC)c(OC)cc3c(=O)c2O)cc1OC` [Compound 10, 3-Hydroxy-3ʹ,4ʹ,6,7-tetramethoxyflavone] returned a melting point of 225 to 226 °C. Further, the concentration for half-maximal inhibition (IC50) at cloned human M1 mAChRs (setting [4]) was more than 10000 µM. Consider `O=c1c(O)c(-c2ccc(O)cc2)oc2cc(O)cc(O)c12` [Compound 11, Kaempferol], for which the half-inhibitory concentration (IC50) at cloned human M1 mAChRs (setting [4]) was more than 10000 µM. Take `O=c1c(O)c(-c2ccc(O)c(O)c2)oc2cc(O)cc(O)c12` [Compound 12, Quercetin]: the concentration for half-maximal inhibition (IC50) on cloned human M1 mAChRs (setting [4]) was more than 10000 µM. For `O=c1c(O)c(-c2cc(O)c(O)c(O)c2)oc2cc(O)cc(O)c12` [Compound 13, Myricetin], the IC50 at cloned human M1 mAChRs is more than 10000 µM.
